Test results: publication PMC9841525, “Chemical Blockage of the Mitochondrial Rhomboid Protease PARL by Novel Ketoamide Inhibitors Reveals Its Role in PINK1/Parkin-Dependent Mitophagy” (Journal of Medicinal Chemistry, 2022)
Entries after “also recorded” stand apart in the source; their conditions may differ. *1 amine or outer side, *2 acyl side, *3 side chain or, on linkers, in order; H or OH if unused. Where a SMILES comes first, the peptide text is derived from it. [ ]: non-standard residue; d: D form. The star is where a group is joined. NH(4-phenylbutyl) = c1ccc(CCCCN*)cc1; X1 = C[C@H](N[*:1])C(=O)C(=O)[*:2]

Tests used:
HEK293T cells = assay: JC-1 mitochondrial membrane potential assay; assay type: cell-based, human; conditions: 5 µM compound 5 or CCCP, at least three hours, compared to DMSO
Description: Staining of cells for the determination of mitochondrial membrane potential was carried out with the JC-1 mitochondrial staining kit (Sigma-Aldrich) according to the kit’s instructions; stained cells were immediately taken to live cell imaging.
For fixation, cells were incubated for 15 min with 4% formaldehyde (16% formaldehyde diluted in PBS, Thermo Scientific) and washed in PBS. The cover glasses were mounted with Fluoromount-G (Southern Biotech) on microscope slides. All microscopy was performed on an LSM 780 system (Carl Zeiss) with a Plan-APOCHROMAT 63× 1.4NA oil objective (Carl Zeiss) and pinhole settings of 1 AU with the Zeiss ZEN 2010 software. Image processing and analysis was performed using ImageJ (http://rsb.info.nih.gov/ij/). […] Parkin recruitment events to the mitochondria were counted by hand throughout each z-stack and cell. […] JC-1 images were handled as summed intensity z-stack projections, as well as subjected to flatfield correction and subtraction of background before measuring the fluorescence levels normalized to the number of cell nuclei. The fluorescence intensity ratio between the red and green signal was calculated and compared to DMSO as a ratio of 1. Data were evaluated using Excel and GraphPad Prism 6.

PARL = target: T1, PARL (Homo sapiens, UniProt Q9H300); assay: CCCP-induced PGAM5-FLAG cleavage by endogenous PARL in HEK293T cells, immunoblot; assay type: cell-based; set-up: expressed in transfected cells; host or cells: Flp-In HEK293 T-REx PARL knockout cells; conditions: 3 h, mean ± SEM of four experiments, read-out: Apparent IC50, CCCP-induced PGAM5 cleavage
T1 sequence (Q9H300 53-379): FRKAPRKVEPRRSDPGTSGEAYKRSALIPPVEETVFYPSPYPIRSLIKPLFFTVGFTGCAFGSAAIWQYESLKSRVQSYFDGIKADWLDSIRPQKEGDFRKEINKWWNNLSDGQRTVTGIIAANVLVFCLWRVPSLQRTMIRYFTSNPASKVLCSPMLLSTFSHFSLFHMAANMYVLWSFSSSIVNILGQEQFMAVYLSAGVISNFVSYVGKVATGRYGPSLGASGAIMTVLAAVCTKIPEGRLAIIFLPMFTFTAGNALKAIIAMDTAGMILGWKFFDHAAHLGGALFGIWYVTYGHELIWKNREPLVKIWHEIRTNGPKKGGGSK
Description: Inducible stable Flp-In HEK293 T-REx cells expressing PINK1 were described previously.[33] HEK293 T-REx PINK1 and HEK293T cells were grown in DMEM (Gibco) supplemented with 10% (v/v) fetal bovine serum (ThermoFisher), 1% (v/v) GlutaMAX (Gibco), 1% (v/v) sodium pyruvate (Gibco), 125 μg/mL hygromycin (Invitrogen), and 10 μg/mL blasticidin (Gibco) or DMEM supplemented with 10% (v/v) fetal bovine serum, respectively, at 37 °C in 5% (v/v) CO2. For microscopy, cells were seeded on poly-L-lysine (Sigma)-coated slides. Transient plasmid transfections were performed using 25 kDa linear polyethylenimine (Polysciences). Plasmid (100 ng) encoding HA-Parkin-IRES-GFP, mito-mCherry or Parkin-mEGFP, or 500 ng plasmid encoding PGAM5-FLAG were used per 6-well. Total transfected DNA was 2 μg/well. For siRNA transfection, 2 × 10^5 cells were seeded per 6-well and on the next day transfected with 20 nM siRNA-oligonucleotide using lipofectamine RNAiMAX (ThermoFisher). Cells were analyzed 27 h post-transfection or five days post-siRNA-transfection. HEK293 T-REx PINK1 cells were induced with 0.3 μg/mL doxycycline for 24 h before further processing. […] For quantification, ImageJ was used (http://rsb.info.nih.gov/ij/). Immunoblots shown are representative of at least three independent experiments and were evaluated using Excel and GraphPad Prism 9 (GraphPad Software, Inc.).

CC(=O)N[C@@H](C)C(=O)N[C@H](C(=O)N[C@@H](Cc1ccccc1)C(=O)N[C@@H](CC(C)C)C(=O)N[C@@H](C)C(=O)C(=O)NCCCCc1ccccc1)C(C)C [compound 5] (Ac-AVFL[X1]-{NH(4-phenylbutyl)})
Effect on mitochondrial membrane potential (JC-1 aggregate to monomer ratio) (HEK293T cells): does not depolarize; also recorded: does not significantly alter the membrane potential
IC50 (PARL): 0.15 µM
